#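 Grown in 96-well plates, cells were treated for 48 hours with each compound at five concentrations. Insufficient inhibition: endpoint recorded as highest concentration tested. At the GI50, growth is halved. The concentration for full growth arrest is given as TGI.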
# Experiments:
# Experiment in all cases: DTP human tumour cell line panel, 48 h
# NCI-H460 lung = test system: NCI-H460 lung
# ACHN renal = test system: ACHN renal
# EKVX NSCLC = test system: EKVX NSCLC
# MCF7 breast = test system: MCF7 breast
# LOX IMVI melanoma = test system: LOX IMVI melanoma
# NCI/ADR-RES ovarian = test system: NCI/ADR-RES ovarian
# SN12C renal = test system: SN12C renal
# BT-549 breast = test system: BT-549 breast
# SK-MEL-5 melanoma = test system: SK-MEL-5 melanoma
# SK-OV-3 ovarian = test system: SK-OV-3 ovarian
# MDA-MB-435 = test system: MDA-MB-435
# CAKI-1 renal = test system: CAKI-1 renal
# U251 CNS = test system: U251 CNS
# SR leukemia = test system: SR leukemia
# K-562 leukemia = test system: K-562 leukemia
# OVCAR-8 ovarian = test system: OVCAR-8 ovarian
# UACC-62 melanoma = test system: UACC-62 melanoma
# CCRF-CEM leukemia = test system: CCRF-CEM leukemia
# SF-268 CNS = test system: SF-268 CNS
# OVCAR-5 ovarian = test system: OVCAR-5 ovarian
# NCI-H226 lung = test system: NCI-H226 lung
# SW-620 colon = test system: SW-620 colon
# HCT-116 colon = test system: HCT-116 colon
# TK-10 renal = test system: TK-10 renal
# NCI-H522 lung = test system: NCI-H522 lung
# SF-295 CNS = test system: SF-295 CNS
# PC-3 prostate = test system: PC-3 prostate
# UO-31 renal = test system: UO-31 renal
# SK-MEL-2 melanoma = test system: SK-MEL-2 melanoma
# COLO 205 colon = test system: COLO 205 colon
# OVCAR-4 ovarian = test system: OVCAR-4 ovarian
# 786-0 renal = test system: 786-0 renal
# T-47D breast = test system: T-47D breast
# A549 NSCLC = test system: A549 NSCLC
# HS 578T breast = test system: HS 578T breast
# MOLT-4 leukemia = test system: MOLT-4 leukemia
# RPMI-8226 leukemia = test system: RPMI-8226 leukemia
# M14 melanoma = test system: M14 melanoma
# KM12 colon = test system: KM12 colon
# SK-MEL-28 melanoma = test system: SK-MEL-28 melanoma
# HOP-62 NSCLC = test system: HOP-62 NSCLC
# DU-145 prostate = test system: DU-145 prostate
# SNB-19 CNS = test system: SNB-19 CNS
# MALME-3M melanoma = test system: MALME-3M melanoma
# RXF 393 renal = test system: RXF 393 renal
# OVCAR-3 ovarian = test system: OVCAR-3 ovarian
# NCI-H23 lung = test system: NCI-H23 lung
# HT29 colon = test system: HT29 colon
# HCT-15 colon = test system: HCT-15 colon
# A498 renal = test system: A498 renal
# HOP-92 NSCLC = test system: HOP-92 NSCLC
# SF-539 CNS = test system: SF-539 CNS
# SNB-75 CNS = test system: SNB-75 CNS
# UACC-257 melanoma = test system: UACC-257 melanoma
# MDA-MB-231 breast = test system: MDA-MB-231 breast
# HCC-2998 colon = test system: HCC-2998 colon
# HL-60(TB) leukemia = test system: HL-60(TB) leukemia
compound,measurement,setting,value
O=C1C(Nc2cccc(O)c2)=C(Sc2ccccc2)C(=O)N1Cc1ccccc1,GI50,NCI-H460 lung,11.3 µM
same,TGI,NCI-H460 lung,29 µM
same,GI50,ACHN renal,12.6 µM
same,TGI,ACHN renal,31.6 µM
same,GI50,EKVX NSCLC,10.1 µM
same,TGI,EKVX NSCLC,28.5 µM
same,GI50,MCF7 breast,6.87 µM
same,TGI,MCF7 breast,22.8 µM
same,GI50,LOX IMVI melanoma,13 µM
same,TGI,LOX IMVI melanoma,39.4 µM
same,GI50,NCI/ADR-RES ovarian,11.5 µM
same,TGI,NCI/ADR-RES ovarian,31.9 µM
same,GI50,SN12C renal,13 µM
same,TGI,SN12C renal,29.6 µM
same,GI50,BT-549 breast,11.2 µM
same,TGI,BT-549 breast,43.5 µM
same,GI50,SK-MEL-5 melanoma,2.37 µM
same,TGI,SK-MEL-5 melanoma,17 µM
same,GI50,SK-OV-3 ovarian,16.4 µM
same,TGI,SK-OV-3 ovarian,35.3 µM
same,GI50,MDA-MB-435,11.1 µM
same,TGI,MDA-MB-435,27.4 µM
same,GI50,CAKI-1 renal,21.6 µM
same,TGI,CAKI-1 renal,55.2 µM
same,GI50,U251 CNS,13 µM
same,TGI,U251 CNS,35.4 µM
same,GI50,SR leukemia,4.74 µM
same,TGI,SR leukemia,21.2 µM
same,GI50,K-562 leukemia,3.71 µM
same,TGI,K-562 leukemia,17.1 µM
same,GI50,OVCAR-8 ovarian,11.9 µM
same,TGI,OVCAR-8 ovarian,26.9 µM
same,GI50,UACC-62 melanoma,5.3 µM
same,TGI,UACC-62 melanoma,18.9 µM
same,GI50,CCRF-CEM leukemia,1.88 µM
same,TGI,CCRF-CEM leukemia,10.1 µM
same,GI50,SF-268 CNS,10.5 µM
same,TGI,SF-268 CNS,26.8 µM
same,GI50,OVCAR-5 ovarian,18.2 µM
same,TGI,OVCAR-5 ovarian,34.1 µM
same,GI50,NCI-H226 lung,2.55 µM
same,TGI,NCI-H226 lung,22 µM
same,GI50,SW-620 colon,14.2 µM
same,TGI,SW-620 colon,33.4 µM
same,GI50,HCT-116 colon,9.87 µM
same,TGI,HCT-116 colon,21.5 µM
same,TGI,TK-10 renal,16.8 µM
same,GI50,NCI-H522 lung,5.75 µM
same,TGI,NCI-H522 lung,23.9 µM
same,GI50,SF-295 CNS,13.5 µM
same,TGI,SF-295 CNS,50.2 µM
same,GI50,PC-3 prostate,2.15 µM
same,TGI,PC-3 prostate,14.3 µM
same,GI50,UO-31 renal,4.98 µM
same,TGI,UO-31 renal,18 µM
same,GI50,SK-MEL-2 melanoma,11.4 µM
same,TGI,SK-MEL-2 melanoma,26.7 µM
same,GI50,COLO 205 colon,17 µM
same,TGI,COLO 205 colon,35.9 µM
same,GI50,OVCAR-4 ovarian,5.33 µM
same,TGI,OVCAR-4 ovarian,49.6 µM
same,GI50,786-0 renal,20.7 µM
same,TGI,786-0 renal,39.4 µM
same,GI50,T-47D breast,1.84 µM
same,TGI,T-47D breast,19.9 µM
same,GI50,A549 NSCLC,3.81 µM
same,TGI,A549 NSCLC,15.9 µM
same,GI50,HS 578T breast,11.5 µM
same,TGI,HS 578T breast,43.8 µM
same,GI50,MOLT-4 leukemia,2.78 µM
same,TGI,MOLT-4 leukemia,12.3 µM
same,GI50,RPMI-8226 leukemia,1.36 µM
same,TGI,RPMI-8226 leukemia,4.07 µM
same,GI50,M14 melanoma,5.35 µM
same,TGI,M14 melanoma,19.5 µM
same,GI50,KM12 colon,14 µM
same,TGI,KM12 colon,28.8 µM
same,GI50,SK-MEL-28 melanoma,11.8 µM
same,TGI,SK-MEL-28 melanoma,26.1 µM
same,GI50,HOP-62 NSCLC,14.8 µM
same,TGI,HOP-62 NSCLC,28.8 µM
same,GI50,DU-145 prostate,16.2 µM
same,TGI,DU-145 prostate,33.3 µM
same,GI50,SNB-19 CNS,13 µM
same,TGI,SNB-19 CNS,27 µM
same,GI50,MALME-3M melanoma,1.74 µM
same,TGI,MALME-3M melanoma,9.97 µM
same,GI50,RXF 393 renal,5.07 µM
same,TGI,RXF 393 renal,25.6 µM
same,GI50,OVCAR-3 ovarian,4.83 µM
same,TGI,OVCAR-3 ovarian,19.9 µM
same,GI50,NCI-H23 lung,11.4 µM
same,TGI,NCI-H23 lung,27.8 µM
same,GI50,HT29 colon,14.3 µM
same,TGI,HT29 colon,29.8 µM
same,GI50,HCT-15 colon,12.4 µM
same,TGI,HCT-15 colon,38.8 µM
O=C1C(Sc2ccc3ccccc3c2)=C(Sc2ccc3ccccc3c2)C(=O)c2ccccc21,TGI,NCI-H460 lung,> 100 µM
same,TGI,ACHN renal,17.3 µM
same,TGI,EKVX NSCLC,23.8 µM
same,TGI,MCF7 breast,40.2 µM
same,TGI,LOX IMVI melanoma,47.8 µM
same,TGI,NCI/ADR-RES ovarian,44.9 µM
same,TGI,SN12C renal,24.7 µM
same,TGI,BT-549 breast,83.2 µM
same,TGI,SK-MEL-5 melanoma,12.4 µM
same,TGI,SK-OV-3 ovarian,68.2 µM
same,TGI,MDA-MB-435,31.5 µM
same,TGI,U251 CNS,19.1 µM
same,TGI,K-562 leukemia,19 µM
same,TGI,OVCAR-8 ovarian,22.2 µM
same,TGI,UACC-62 melanoma,14.2 µM
same,TGI,SF-268 CNS,28.7 µM
same,TGI,OVCAR-5 ovarian,27.1 µM
same,TGI,NCI-H226 lung,37.4 µM
same,TGI,SW-620 colon,16.5 µM
same,TGI,HCT-116 colon,20.2 µM
same,TGI,NCI-H522 lung,10.6 µM
same,TGI,PC-3 prostate,31.8 µM
same,TGI,UO-31 renal,15.8 µM
same,TGI,SK-MEL-2 melanoma,19.3 µM
same,TGI,COLO 205 colon,12.8 µM
same,TGI,A498 renal,33.4 µM
same,TGI,OVCAR-4 ovarian,15.2 µM
same,TGI,786-0 renal,25.3 µM
same,TGI,T-47D breast,4.62 µM
same,TGI,A549 NSCLC,21.7 µM
same,TGI,HOP-92 NSCLC,22.3 µM
same,TGI,HS 578T breast,62.3 µM
same,TGI,MOLT-4 leukemia,5.9 µM
same,TGI,SF-539 CNS,22.8 µM
same,TGI,M14 melanoma,23.7 µM
same,TGI,SNB-75 CNS,28.7 µM
same,TGI,UACC-257 melanoma,16.3 µM
same,TGI,MDA-MB-231 breast,18.3 µM
same,TGI,SK-MEL-28 melanoma,28.5 µM
same,TGI,HOP-62 NSCLC,27.8 µM
same,TGI,DU-145 prostate,84.4 µM
same,TGI,SNB-19 CNS,20.3 µM
same,TGI,HCC-2998 colon,19.6 µM
same,TGI,HL-60(TB) leukemia,11.2 µM
same,TGI,RXF 393 renal,32.6 µM
same,TGI,NCI-H23 lung,22.1 µM
same,TGI,HT29 colon,29 µM
same,TGI,HCT-15 colon,23.5 µM

# — PubChem BioAssay (NCI)
